Experimental data: patent publication US20110160444A1, “Cloning Transcription Factor Gene OsWOX20 That Regulates The Growth and Development of Monocotyledon's Root and Uses Thereof” (Huazhong Agricultural University, priority 2007, published 2011)

Key:
[1] = system: OsWOX20 gene expression; assay: Induced expression of rice endogenous gene OsWOX20 by realtime-PCR; format: in vivo, rice variety Zhonghua No. 11; details: 10 μM, roots of seedlings soaked; for Induction of expression of OsWOX20 gene: samples 0-24 h, normalized to actin1; for Time after which level of expression of OsWOX20 began to rise / Time at which level of expression of OsWOX20 reached peak: exogenous auxin
Protocol: The rice variety “Zhonghua No. 11” was used as the research material and treated with auxin, cytokinin, an auxin inhibitor and light at day ten after germination. Auxin treatment was done by soaking the roots of the seedlings with 10 μM IAA (indoleacetic acid) and 10 μM NAA (naphthaleneacetic acid) and taking samples at 0 h, 0.5 h, 1 h, 2 h, 3 h, 4 h, 6 h, 9 h, 12 h and 24 h. Cytokinin treatment was done by soaking the roots of the seedlings with 10 μM 6-BA (6-benzylaminopurine) and taking samples at 0 h, 0.5 h, 1 h, 2 h, 3 h, 4 h, 6 h, 9 h, 12 h and 24 h. Auxin inhibitor NPA (N-1-naphthylphthalamic acid) treatment was performed by soaking the roots of the seedlings in 1 μM NPA solution and taking samples at 0 h, 0.5 h, 1 h, 2 h, 3 h, 4 h, 6 h, 9 h, 12 h and 24 h. Light treatment was carried out by allowing the seeds of rice variety “Zhonghua No. 11” to germinate in dark, then placing the seedlings which have germinated for 5 days in dark under light for growth, and sampling at 1 h, 2 h, 4 h, 8 h and 12 h after light illumination. Total RNAs were extracted from whole plants (Trizol reagent, purchased from Invitrogen) and reverse transcribed according to the method described in Example 4. The reverse transcription product was subjected to quantitative PCR in a reaction system of 25 μl containing 1.5 μl of reverse transcription product, 0.25 μM of each of left and right primers and 12.5 μl of SYBR Green mixture (Applied Biosystems). The PCR reaction was performed on a 7500 real-time quantitative PCR amplifier (Applied Biosystems) according to the protocol described in the manufacturer's manual provided by Applied Biosystems, with rice actin1 gene as the internal reference of the reaction. All primers were annealed at 58° C. and reaction was performed for 40 cycles. Each sample was assayed in triplicate and normalized to the level of expression of actin1. […] The OsWOX20 primers used in the quantitative PCR were: […]

[2] = system: transgenic plants (OsWOX20 overexpression lines 1-3); assay: Effect of auxin inhibitor (NPA) on root length and numbers of crown and lateral roots, OsWOX20 transgenic plants; format: in vivo, rice; details: for Length of roots / Number of crown roots / Number of lateral roots: treated with 10^-6 mol/L NPA
Excerpt: (§1) 2) In order to compare the root system of transgenic OWOX20 lines with increased number of roots to that of wild-type lines, we collected seeds from five transgenic OWOX20 lines after the seeds were completely ripe and allowed the seeds to germinate to investigate growth of the roots.

[3] = system: wild-type plants; assay: Effect of auxin inhibitor (NPA) on root length and numbers of crown and lateral roots, wild-type plants; format: in vivo, rice; details: treated with 10^-6 mol/L NPA
Excerpt: as §1

c1ccc(CNc2ncnc3nc[nH]c23)cc1 [6-BA, 6-benzylaminopurine]
Induction of expression of OsWOX20 gene [1]: can be induced

O=C(O)Cc1c[nH]c2ccccc12 [IAA, indoleacetic acid]
Induction of expression of OsWOX20 gene [1]: can be induced | Time after which level of expression of OsWOX20 began to rise [1]: 30 min | Time at which level of expression of OsWOX20 reached peak [1]: about 1 hour

O=C(O)Cc1cccc2ccccc12 [NAA, naphthaleneacetic acid]
Time after which level of expression of OsWOX20 began to rise [1]: 30 min | Time at which level of expression of OsWOX20 reached peak [1]: about 1 hour

O=C(O)c1ccccc1C(=O)Nc1cccc2ccccc12 [NPA, N-1-naphthylphthalamic acid]
Growth of the roots ([2]; seeds from lines having increased number of roots, 10^-6 mol/L NPA): markedly inhibited | Length of roots ([2]; transgenic Line 1+): 1.1 ± 0.3 cm | Number of crown roots ([2]; transgenic Line 1+): 3.0 ± 2.7 | Number of lateral roots ([2]; transgenic Line 1+): 0 | Length of roots ([2]; transgenic Line 2+): 1.3 ± 0.6 cm | Number of crown roots ([2]; transgenic Line 2+): 1.7 ± 0.6 | Number of lateral roots ([2]; transgenic Line 2+): 0 | Length of roots ([2]; transgenic Line 3+): 1.0 ± 0.6 cm | Number of crown roots ([2]; transgenic Line 3+): 3.0 ± 1.0 | Number of lateral roots ([2]; transgenic Line 3+): 0 | Numbers and length of crown roots and lateral roots versus untreated plant lines ([2]; transgenic plant lines in the presence of NPA): significantly decreased | Length of roots [3]: 4.8 ± 0.5 cm | Number of crown roots [3]: 3 ± 0 | Number of lateral roots [3]: 6.4 ± 2.8
